The values that follow are results of earlier work, collected in patent publication US6166290A, “Glutathione-S-conjugate transport in plants” (The Trustees of the University of Pennsylvania, priority 1997, dated 2000).

Data set [1] has as its system endogenous GS-X pump of plant vacuolar membranes. To be noted: read-out: Km for transport by endogenous plant vacuolar GS-X pump; cited from earlier work.
The test system of data set [2] is vacuolar membrane vesicles purified from Beta vulgaris storage root. To be noted: cited from earlier work.

`N[C@@H](CCC(=O)N[C@@H](CSc1ccc([N+](=O)[O-])cc1[N+](=O)[O-])C(=O)NCC(=O)O)C(=O)O` [DNP-GS, S-(2,4-dinitrophenyl)glutathione]: in data set [1], the Km was 81.3 ± 41.8 µM. The “rate of MgATP-dependent, uncoupler-insensitive DNP-GS uptake” value in data set [2] is on record as 18.2 nmol/mg/20 minutes.
